Earlier results, collected in patent publication US20170276692A1, “METHODS OF MONITORING FOR ADHERENCE TO BREXPIPRAZOLE (REXULTI®) THERAPY” (Ameritox, LLC, priority 2016, published 2017).

Tests used:
[1] = for predominant route of excretion: in vivo
[2] = brexpiprazole is the predominant species

SMILES	fraction of an oral dose excreted as unchanged brexpiprazole in feces ([1]; oral dose, feces)	fraction of an oral dose excreted as unchanged brexpiprazole in urine ([1]; oral dose, urine)	oral bioavailability (after oral administration)	time to steady state serum concentrations (days of dosing)	mean elimination half-life (in vivo)	predominant route of excretion [1]	metabolite level in plasma [2]
O=c1ccc2ccc(OCCCCN3CCN(c4cccc5sccc45)CC3)cc2[nH]1 [Brexpiprazole]	14%	Less than 1%	95%	10 to 12 days	91 h	–	–
O=C(O)CCCOc1ccc2ccc(=O)[nH]c2c1 [OPC3952]	–	–	–	–	–	excreted predominantly in urine	0-4%
c1cc(N2CCNCC2)c2ccsc2c1 [SF034318]	–	–	–	–	–	excreted predominantly in urine	–
